In one assay the test system is Aspergillus Niger. Put plainly: Antifungal assay (microtitration technique). Format: cell-based. The conditions noted are these: 120 h; Aspergillus Niger strain 500/284; 5 days at 30° C. The procedure:
(§1) The microtiter plate is prepared as follows: The wells are each filled (2 rows/strain) with 50 μl neopeptone-dextrose broth (12-channel pipette). In addition, one row/strain is coated with 50 μl yeast-nitrogen base/well for yeasts and moulds. […] All wells are then inoculated with 150 μl standardized organism suspension (yeasts: 1×10^3 organisms/ml suspension; cutaneous fungi and moulds: 1.6×10^5 organisms/ml suspension); the total volume is 200 μl per well. There is also a growth control (inoculated, not medicated), a solvent control (inoculated, not medicated, containing solvent as in medicated rows) and a negative control (not inoculated, not medicated). Incubation for 5 days at 30° C. is followed by photometric evaluation. The obtained measurements are checked visually (macroscopically and microscopically) and corrected where necessary. Criteria for Evaluation of the Antimycotic Effect a. Photometric measurements (matrix method) b. Growth, macroscopic evaluation c. Growth, microscopic evaluation (inversion light microscope, magn. 64×).

A further assay deals with Candida Albicans. Description: Antifungal assay (microtitration technique). Format: cell-based. The conditions noted are these: 120 h; Candida Albicans strain 200/175; 5 days at 30° C. The procedure:
as §1

The next assay deals with Microsporum Canis. Put plainly: Antifungal assay (microtitration technique). Format: cell-based. The conditions noted are these: 120 h; Microsporum Canis strain 150/353; 5 days at 30° C. The procedure:
as §1

In assay [1] the test system is Trichophyton Mentagrophytes. Description: Antifungal assay (microtitration technique). Format: cell-based. The conditions noted are these: 120 h; Trichophyton Mentagrophytes strain 100/25; 5 days at 30° C. The procedure:
as §1

Another assay deals with Trichophyton Rubrum. Description: Antifungal assay (microtitration technique). Format: cell-based. To be noted: 120 h; Trichophyton Rubrum strain 101/85; 5 days at 30° C. The method, then:
as §1

Another assay concerns Trichophyton Vaginalis. Put plainly: Antifungal assay (microtitration technique). Format: cell-based. The conditions noted are these: 120 h; Trichophyton Vaginalis strain 111/216; 5 days at 30° C. The procedure: as §1
In another assay the test system is male CFW mice. Description: Dark avoidance assay (reversal of scopolamine induced memory deficits). Format: in vivo. To be noted: sc, scopolamine 3.0 mg/kg sc. The procedure: In this assay, three groups of 15 male CFW mice were used—a vehicle/vehicle control group, a scopolamine/vehicle group, and a scopolamine/drug group. Thirty minutes prior to training, the vehicle/vehicle control group received normal saline subcutaneously, and the scopolamine/vehicle and scopolamine/drug groups received scopolamine subcutaneously (3.0 mg/kg, administered as scopolamine hydrobromide). Five minutes prior to training, the vehicle/vehicle control and scopolamine/vehicle groups received distilled water and the scopolamine/drug group received the test compound in distilled water.
The training/testing apparatus consisted of a plexiglass box approximately 48 cm long, 30 cm high and tapering from 26 cm wide at the top to 3 cm wide at the bottom. The interior of the box was divided equally by a vertical barrier into a light compartment (illuminated by a 25-watt reflector lamp suspended 30 cm from the floor) and a dark compartment (covered). There was a hole at the bottom of the barrier 2.5 cm wide and 6 cm tall and a trap door which could be dropped to prevent an animal from passing between the two compartments. […]
At the end of the pretreatment interval, an animal was placed in the light chamber directly under the light fixture, facing away from the door to the dark chamber. […] The latency is seconds for each mouse was recorded.
The test day latency in seconds for each animal was recorded and the animals were then discarded.
The high degree of variability (due to season of the year, housing conditions, and handling) found in one trial passive avoidance paradigm is well known. To control for this fact, individual cutoff (CO) values were determined for each test, compensating for interest variability. […]
The results of the dark avoidance test are expressed as the number of animals per group (%) in which this scopolamine induced memory deficit is blocked as measured by an increase in the latency period.

Assay [2] has as its system female Swiss Webster mice. Put plainly: TPA-induced ear edema assay. Format: in vivo. The conditions noted are these: 10 μg/ear topical, after about 5 hours. The method, then:
In the TPA-induced ear edema assay, TPA (12-O-tetradecanoylphorbol-13-acetate) was dissolved in 30/70 propylene glycol/ethanol and was applied to the right ear of groups of 6 female Swiss Webster mice, which were housed together in a cage under standard conditions for 1 week prior to use with food and water ad lib, at a volume of 20 μl so that a total of 10 μg of TPA is delivered to the inner and outer surfaces of the ear. The test compound was dissolved in the vehicle and was applied to the right ear (the inner and outer surface) at a volume of 20 μl so that a total of 10 μg of the compound was delivered to the ear. After about 5 hours, the animals were sacrificed, a 4 mm diameter plug was taken from each ear and weighed. The difference between the right and left ear plug weights for each animal was determined. The antiinflammatory activity of the test compound is expressed as the mean percent change in the ear plug weight of the treated animals compared to the mean percent change in the plug weight of the control animals.

In the next assay the target is Protein kinase C. Description: Protein kinase C assay (32P incorporation into Type III histone). Format: biochemical, rat. The conditions noted are these: for IC50: rat brain protein kinase C, phosphatidylserine/diacylglycerol stimulated, read-out: Protein Kinase Inhibitory Activity IC50. The procedure:
(see U. Kikkawa, et al., Biochemical and Biophysical Research Communications, 135, 636 (1986) and R. M. Bell, et al. “Methods in Enzymology, Hormone Action,” Part J, P.M. Conn, Ed., Academic Press, Inc., New York, N.Y. 1986, page 353). Protein kinase C enzyme extract was prepared from the brain of male Wistar rats weighing 180 to 200 g and purified by the method of U. Kikkawa, et al., ibid. 636. The purified extract was stored at −80° C., and aliquots were used in the protein kinase C assay performed by a modification of the method of R. M. Bell, et al., ibid. al 354. To perform the assay, duplicate aliquots of duplicate samples are employed. Basal or unstimulated protein kinase C, phosphatidylserine/diacylglycerol stimulated protein kinase C, and test samples are run in each assay. […] The assay tubes were allowed to warm to 25° C. and an 8 μl mixture of adenosine 5′-triphosphate (100 μM) and ^32P-adenosine triphosphate (1 to 2×10^5 counts per minute) was added to each tube for a final volume of 80 μl per tube. After 2 min, the reaction (the incorporation of phosphorous into Type III histone) was terminated by spotting the assay mixture on phosphocellulose paper. The spots are cut out of the paper and the radioactivity (counts per min) of each spot was determined in a scintillation counter.

Values after ≈ are worked out from the molar mass of the structure shown.

The MIC is the lowest concentration that inhibits growth of the organism. A lower MIC goes with a more susceptible organism. `Clc1ccccc1C(c1ccccc1)(c1ccccc1)n1ccnc1` [Clotrimazol, reference compound]: the MIC against Aspergillus Niger came to 1.95 µg/mL (≈ 5.65 µM); with Candida Albicans it was 3.9 µg/mL (≈ 11.3 µM); in the assay with Microsporum Canis, 0.06 µg/mL (≈ 0.174 µM); in assay [1], 0.97 µg/mL (≈ 2.81 µM); in the assay on Trichophyton Rubrum, 0.24 µg/mL (≈ 0.696 µM); in the assay with Trichophyton Vaginalis, 62.5 µg/mL (≈ 181 µM).

Regarding `CCCCCCCCC#Cc1cccc(C(O)C(NC(C)=O)C(=O)OCC)n1` (stereo not drawn) [Ethyl erythro-2-acetamido-3-[6-(1-Decynyl)-2-pyridinyl]-3-hydroxypropionate], in the assay on male CFW mice (Dose 3.0 mg/kg), the “Percent of Animals with Scopolamine Induced Memory Deficit Reversal” value (shortened to “Percent of Animals”) turned out to be 27%.

For `CNC(=O)Oc1ccc2c(c1)[C@]1(C)CCN(C)[C@@H]1N2C` [physostigmine, reference compound], the “Percent of Animals” value with male CFW mice (Dose 0.31 mg/kg) amounted to 20%.

In general, IC50 refers to the midpoint of a concentration-inhibition curve. As to `CCCCCCCCCCCCc1cccc(C(O)C(N)CO)n1` (stereo not drawn) [erythro-2-Amino-1-(6-Dodecyl-2-pyridinyl)-1,3-propanediol], the “Antiinflammatory Activity Percent Decrease in Ear Plug Weight at 10 μg/ear” value in [2] was determined as 24%. Also, the IC50 at Protein kinase C worked out at 8.5 µM.

For the compound `CCCCCCCCCCc1cccc(C(O)C(N)CO)n1` (stereo not drawn) [threo-2-amino-1-(6-decyl)-2-pyridinyl)-1,3-propanediol] [threo-2-Amino-1-(6-Decyl-2-pyridinyl)-1,3-dihydroxypropane], the “Antiinflammatory Activity Percent Decrease in Ear Plug Weight at 10 μg/ear” value in assay [2] is listed as 30%. Further, at Protein kinase C, the IC50 turned out to be 25 µM.

Consider `CCCCCCCCCCC=Cc1cccc(C(O)C(CO)NC(C)=O)n1` (stereo not drawn) [cis-erythro-N-{1-[6-(1-Dodecenyl)-2-pyridinyl]-1,3-dihydroxy-2-propanyl}acetamide], for which, in the assay with Protein kinase C (@ 100 μM), the “Protein Kinase Inhibitory Activity, percent inhibition at a single concentration” value worked out at 66% @ 100 μM.

With `CCCCCCCCC#Cc1cccc(C(O)C(CO)NC(C)=O)n1` (stereo not drawn) [erythro-N-{1-[6(1-Decynyl)-2-pyridinyl]-1,3-dihydroxy 2-propanyl}acetamide], the “Percent of Animals” value in the assay on male CFW mice (Dose 3.0 mg/kg) is reported as 33%.

On to `Cc1cc(C2CCCCC2)n(O)c(=O)c1` [Cyclopirox, reference compound], for which the MIC in the assay on Aspergillus Niger stood at 0.97 µg/mL (≈ 4.68 µM); in the assay on Candida Albicans, 1.95 µg/mL (≈ 9.41 µM); in the assay on Microsporum Canis, 1.95 µg/mL (≈ 9.41 µM); in assay [1] it was 1.95 µg/mL (≈ 9.41 µM); in the assay on Trichophyton Rubrum, 1.95 µg/mL (≈ 9.41 µM); in the assay with Trichophyton Vaginalis, 15.6 µg/mL (≈ 75.4 µM).

On to `CCCCCCCCCCC#Cc1cccc(C(O)C(NC(C)=O)C(=O)OCC)n1` (stereo not drawn) [Ethyl erythro-2-acetamido-3-[6-(1-Dodecynyl)-2-pyridinyl]-3-hydroxypropionate], for which, in assay [2], the “Antiinflammatory Activity Percent Decrease in Ear Plug Weight at 10 μg/ear” value is 50%. Moreover, the 50% inhibitory concentration (IC50) on Protein kinase C worked out at 29 µM.

For the origin of these results see US6500849B1, “1-alkyl-, 1-alkenyl-, and 1-alkynylaryl-2-amino 1,3-propanediols and related compounds” (Aventis Pharmaceuticals Inc., priority 1990, dated 2002).
